In a melting point compilation (Tetko et al.; mined from patent text by program, amines drawn as free bases though some values may be those of a salt):

Compound | melting point [°C]
CCOC(=O)C1=C(C)Nc2ccnc(OC(C)C)c2C1c1cccc2c1OCO2 (stereo not drawn) | 156 to 158
CN(C)C(=O)Cc1c[nH]c2ccc(I)cc12 | 195 to 200
CCCOc1ncc(I)cc1-c1nc2c(CC)n(Cc3ccccn3)nc2c(=O)[nH]1 | 229 to 234
COc1cc(CCCn2cncn2)ccc1OCc1coc(/C=C/c2ccccc2)n1 | 113 to 114
CCOc1cc(CCCC2OC(=O)NC2=O)ccc1OCc1nc(-c2ccccc2)oc1C (stereo not drawn) | 129 to 130
CCOc1ccc2c(c1)n(-c1ccccc1Cl)c(=O)n2Cc1ccc(NC(=O)N(CC)CC)cc1OC | 150
O=C(O)CSc1cc(-c2ccccc2)nc2ccccc12 | 138
Cc1cc(Cn2nnn(-c3ccc(C(F)(F)F)cc3)c2=O)ccc1N | 210 to 211
N#CC(=Cc1cc2cccnc2n(-c2cc(Cl)cc(Cl)c2)c1=O)c1ccccn1 | 319
CCOC(=O)C1C2C(=O)N(Cc3ccccc3)C(=O)C12 (stereo not drawn) | 190
Cn1ccnc1Sc1ccc(Nc2c(C#N)cnc3cc(/C=C/CCN4CCCC4)ccc23)cc1Cl | 185 to 191
CCCN(CCC)C1Cc2cccc3c2n(c(=O)n3C)C1 (stereo not drawn) | 83 to 85
COC(=O)[C@H]1CC[C@@H](NC(=O)c2cc(-c3ccc(C#N)cc3)nn(C)c2=O)CC1 | 190 to 192
CCOC(=O)c1ccc(Cl)c(Cl)c1 | 33 to 35
Cc1oc(-c2ccccc2)nc1COc1nn(Cc2ccc(Oc3ccccc3)cc2)cc1/C=C/C(=O)O | 210 to 211
CCCCCCNC(=O)C(CCC(=O)O)NC(=O)C(NC(=O)OC(C)(C)C)C(C)C (stereo not drawn) | 63 to 65
O=C(c1ccccc1)C1C=C(Cl)C=CC1(F)NCCO (stereo not drawn) | 96 to 101
COc1ccc(C(=O)Nc2ccc(F)cc2)cc1Nc1cccc(C(F)(F)F)c1 | 163 to 164
Cc1cn(-c2ccc([N+](=O)[O-])c(C)c2)c(C)n1 | 136 to 138
COc1ccc(S(=O)(=O)C2(C(=O)NO)CCN(Cc3ccc(Br)cc3)CC2)cc1 | 180
CCn1c(=O)n(OCc2ccccc2)c(=O)c2cc(F)c(F)cc21 | 133 to 135
CNc1nc(-c2cccc(NC(=O)c3ccccc3)c2)c2cc(O)c(OC)cc2n1 | 145 to 147
Cn1ncc(/C=C/C(=O)O)c1-c1ccoc1 | 218 to 219
CC(C)(C)c1cc(-c2nnc(C(N)=S)s2)cc(C(C)(C)C)c1O | 215 to 216
Cc1nc2cnccc2n1-c1ccc(O)cc1 | 265 to 267

Compound | melting point [°C]
O=C(O)CCSCC(=O)c1ccc2[nH]c(=O)[nH]c2c1 | 212 to 215
Cc1nc2ccccn2c(=O)c1CCN1CCN(c2cccc(Cl)c2)CC1 | 112 to 113
CC(C)(O)c1ccc(CNC(=O)c2cccnc2Oc2cccc3c2CCC3=O)cc1 | 145 to 147
CCCc1c(OCCCOc2cccc3c2CCCC3)ccc2c1OC(CCCO)(CCCO)CC2O (stereo not drawn) | 123 to 124
CC(=O)Oc1ccc2c(c1)C1C(OC(=O)C(C)(C)C)CC3(C)C(OC(=O)C(C)(C)C)CCC3C1CC2 (stereo not drawn) | 143 to 146
Cc1onc(C(=O)c2c(F)cccc2F)c1NC(=O)CBr | 76 to 80
Cn1c(C(F)(F)F)cc(=O)n(-c2cc(OCc3ccc(Cl)cc3Cl)c(Cl)cc2F)c1=O | 112 to 120
Fc1ccc(Nc2ncnc3cnc(N4CCC(N5CCNCC5)CC4)nc23)cc1Cl | 178 to 180
CCOCCC(=O)OC1(C(=O)CO)CCC2C3CCC4=CC(=O)CCC4(C)C3C(O)CC21C (stereo not drawn) | 149
CC(=CC(=O)O)Sc1c[nH]c2ccccc12 | 201 to 202
Nc1c(F)cc(-c2ccccc2)cc1Cl | 105 to 107
COc1ccc(Sc2[nH]cc(C(=O)O)c2Sc2ccc(OC)cc2)cc1 | 159 to 162
CCCn1cccc1C(N)=S | 88 to 91
O=C(O)c1cc(C(F)(F)F)cc(-c2ccc(Cl)c(C(=O)NCC34CC5CC(CC(C5)C3)C4)c2)n1 | 220 to 225
CS(=O)(=O)Nc1ccc(NCC2CCNCC2)c(C(=O)Nc2ccc(Cl)cn2)c1 | 223 to 226
NS(=O)(=O)c1ccccc1CSc1ncccn1 | 128 to 130
O=C1C(=O)N(Cc2ccc(Br)cc2F)c2c(Cl)cccc21 | 164 to 166
CCOC(=O)c1ccc(/C=C(\C)c2cc3c(s2)C(C)(C)CCC3(C)C)nc1 | 83 to 84
CCCCOC(=O)C=C(C)C=CC=C(C)C=Cc1c(C)c(C)c(OC)c(C)c1C | 230 to 233
CC(=O)c1c(C)cc(=O)[nH]c1C | 160 to 162
O=S1(=O)N=C(c2cccc(Cl)c2)c2ccccc21 | 149 to 150
O=CN1CCCN(C2=Nc3cc(Cl)ccc3Nc3ccccc32)CC1 | 152 to 155
CCCCc1sc2ccc([N+](=O)[O-])cc2c1C(=O)c1ccc(O)cc1 | 147
Cc1ccc(N(c2ccc(-c3ccccc3)cc2)c2ccc(C)c(C)c2)cc1C | 114
CCC1C(C)=NN=C(c2ccccc2)c2ccc(OC)cc21 (stereo not drawn) | 162 to 163

Compound | melting point [°C]
Cn1nc(-c2ccc(Cl)cc2)nc1-c1cccnc1 | 157 to 158
Cc1nc2cc(C(F)(F)F)ccc2n1N | 190 to 192
Nc1ccc2oc(-c3ccccc3)nc2c1 | 155 to 157
CC(=O)OCC(=O)C1CCC2C3CCC4CC(O)C(N5CCOC(C)(C)C5)CC4(C)C3C(=O)CC12C (stereo not drawn) | 158 to 160
CCOC(=O)CN(CCOc1cc2cc3c(Nc4cc(OC)c(Cl)cc4C)c(C#N)cnc3cc2cc1OCC)CC(=O)OCC | 70 to 71
NC(=NO)c1nn(-c2c(Cl)cc(C(F)(F)F)cc2Cl)c(N)c1S(=O)(=O)C(F)(F)F | 205 to 206
COc1ccc(N2CCOCC2)cc1NC(=O)c1ncc[nH]1 | 227 to 230
CC1CCCC1n1ncc(-c2ccc(S(C)(=O)=O)cc2)c(-c2ccc(F)cc2)c1=O (stereo not drawn) | 180 to 181
COc1ccc2cc(CCc3ccc(OCC(O)CNC(C)C)cc3)n(C)c(=O)c2c1 (stereo not drawn) | 137 to 139
CCC(=O)Nc1cc(S(=O)(=O)c2ccccc2)ccc1NC(=NC(=O)OC)NC(=O)OC | 137
O=C(c1ccccc1)c1ccc(-c2ccc(-c3ccc(-c4ccc(C(=O)c5ccccc5)s4)s3)s2)s1 | 307 to 310
CC(C)Cc1ccc2c([N+](=O)[O-])c(O)c(O)cc2c1 | 105 to 108
CN1Cc2c(C(=O)NN)ncn2-c2ccsc2C1=O | > 260
CCNC(=O)NSC(=S)N(C)C | 173 to 175
Cc1cccc2[nH]c(C=O)cc12 | 147 to 149
Nc1ccccc1NS(=O)(=O)c1ccc([N+](=O)[O-])cc1 | 190 to 191
COc1ccc(C2Sc3c(Cl)cccc3N(CCN(C)C)C(=O)C2O)cc1 (stereo not drawn) | 143 to 144
CCCCCCCCCCCCCCCCCC(=O)c1c[nH]c2cc(C(=O)O)ccc12 | 268 to 270
COc1cc(NS(=O)(=O)c2cccs2)c2[nH]c(C(=O)NCCSC(c3ccccc3)(c3ccccc3)c3ccccc3)cc2c1 | 128 to 129
Cc1ccc(NC(N)=S)c(-c2ccccc2)c1 | 175 to 177
Cn1nc(Cl)c(Cl)c1S(=O)(=O)CCCl | 56 to 59
Cc1nnc(-c2ccccc2F)n2nc(OCc3ncn(C)n3)c(-c3ccsc3)c12 | 214 to 217
O=c1[nH][nH]c(=O)c(-c2c(F)cc(F)cc2F)c1-c1ccc(Br)cc1 | 134 to 137
CCC(C)S(=O)(=O)c1snc(OC(F)F)c1C#N (stereo not drawn) | 42 to 43
CCOC(=O)C1=C(C)NC(C(OCC)OCC)=C(C(=O)OCC)C1c1ccccc1C(F)(F)F (stereo not drawn) | 82 to 83

Compound | melting point [°C]
Cc1cccc2c1N(CCN(C(C)C)C(C)C)C(=O)/C2=N/NC(N)=O | 194 to 195
CCOC(=O)C1=C(CO)NC(C)=C(C(=O)OCCOCc2ccccc2)C1c1cccc([N+](=O)[O-])c1 (stereo not drawn) | 112 to 114
CCOC(=O)C(=CNc1ccc(C)cc1CO)C(=O)OCC | 92 to 95
C(#Cc1ccc(C2=CC(c3ccc(C#Cc4ccccc4)cc3)N(c3ccccc3)N2)cc1)c1ccccc1 (stereo not drawn) | 200 to 204
O=C(O)c1ccc2nc3c4nc5cc(C(=O)O)ccc5nc4c4nc5cc(C(=O)O)ccc5nc4c3nc2c1 | > 390
CCn1c(=O)cc(C2CCCCC2)c2cccnc21 | 88 to 89
COc1c(C(=O)Nc2ccc(-n3nc(C(F)(F)F)cc3C(F)(F)F)cc2)csc1Cl | 119 to 120
O=C1Cc2cccc(-c3ccccc3)c2N1 | 167 to 169
O=S(=O)(c1cccs1)N(CCN1CCOCC1)c1cccc2cc(-c3nccs3)[nH]c12 | 192 to 193
COc1cc2ncnc(NNC(N)=O)c2cc1OC | 247 to 249
COc1ccc(NC(=O)c2ccc(C3(C#N)CCCC3)cc2)cc1 | 163 to 168
CCn1nc(-c2nc(C#N)c(C#N)nc2-c2ccccc2)ccc1=O | 201 to 203
CCN(CC)Cc1cc(Nc2ccnc3cc(Cl)ccc23)c2c(c1O)CCCC2 | 215 to 217
COc1ccc(C#N)cc1-c1cc(-c2ccc(C#N)cc2[N+](=O)[O-])no1 | 264 to 266
Cn1cncc1C(N)(c1ccc(Cl)cc1)c1ccc2c(c1)c(-c1cccc(Cl)c1)nc1nnnn12 (stereo not drawn) | 159
COc1cccc(CC(=O)NCc2ccccc2Cl)c1 | 89 to 91
Cc1cccc(NC(=O)NC2N=C(c3ccccc3F)c3ccccc3N(Cc3nc4ccccc4o3)C2=O)c1 (racemic) | 209 to 210
C=CCC(CC)(CC)C(=O)O[C@H]1C[C@H](O)C=C2C=C[C@H](C)[C@H](CC[C@@H]3C[C@@H](O)CC(=O)O3)[C@H]21 | 107 to 108
COC(=O)C1C(=O)NC(=O)C12C(=O)N1c3ccccc3Sc3cccc2c31 (stereo not drawn) | 221 to 224
CCOC(=O)c1nc(NCC(c2ccccc2)c2ccccc2)c2ncn(C3CCCCO3)c2n1 (stereo not drawn) | 138 to 140
CC(C)(C)c1ccc(C(=O)Nc2ccc(OCCO)cc2)cc1 | 136 to 142
O=C(CCc1ccc2ccccc2c1)c1cnc2sc3c(n12)CCCCC3 | 76 to 78
COc1cc2c(s1)c(=O)c(SC)cn2C | 185 to 187
